Experimental data: patent publication US12414960B2, “Analogues of oleuropein and oleacein and uses thereof” (Attica Sciences Ltd., priority 2020, dated 2025)

Experiments:
[1] = system: MDA-MB-231 triple negative breast cancer cells; experiment: XTT cell growth assay, MDA-MB-231; type: cell-based, human; conditions: NS = not statistically significant; for inhibition at 50 µM: Homo sapiens, MDA-MB-231, 24 h, read-out: Effectiveness to suppress MDA-MB-231 cell growth (cell growth inhibition)
Method in brief: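 Cells grown 24 h in DMEM, then exposed 24 h to 5, 10 and 50 μM compound in serum-free DMEM. Viability read by XTT reduction to formazan after 4 h, absorbance at 450 nm with 630 nm reference; serum-free DMEM alone as negative control.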

[2] = Deoxyribose degradation assay (hydroxyl radical scavenging); type: biochemical; conditions: NS = not statistically significant
Method in brief: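 Hydroxyl radicals from Fenton's reaction degrade 2-deoxyribose. Scavenging is measured as inhibition of this oxidation, read spectrophotometrically as pink chromogen absorbance at 532 nm.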

[3] = system: MCF-7 ER+ breast cancer cells; experiment: XTT cell growth assay, MCF-7 ER+; type: cell-based, human; conditions: NS = not statistically significant; for inhibition at 50 µM: Homo sapiens, MCF7, 24 h, read-out: Effectiveness to suppress MCF7 cell growth (cell growth inhibition)
Method in brief: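 MCF-7 ER+ cells grown 24 h in DMEM, then given 5, 10 or 50 μM compound in serum-free DMEM for 24 h. XTT reagent added for 4 h. Absorbance read at 450 nm with 630 nm reference; serum-free DMEM alone as negative control.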

[4] = system: HeLa cervical cancer cells; experiment: XTT cell growth assay, HeLa; type: cell-based, human; conditions: 24 h, NS = not statistically significant; for inhibition at 50 µM: Homo sapiens, HeLa, read-out: Effectiveness to suppress HeLa cell growth (cell growth inhibition)
Method in brief: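 HeLa cells in DMEM were plated and incubated 24 h, then exposed 24 h to compound at 5, 10 or 50 μM in serum-free DMEM. After 4 h with XTT reagent, formazan absorbance was read at 450 nm (630 nm reference); serum-free medium served as negative control.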

| Compound | inhibition at 50 µM [1] | Deoxyribose Degradation Assay IC50 [2] | inhibition at 50 µM [3] | Effectiveness to suppress HeLa cell growth (cell growth inhibition) ([4]; 50 uM) | inhibition at 50 µM [4] | Effectiveness to suppress MCF7 cell growth (cell growth inhibition) ([3]; 50 uM, 24 h) | Effectiveness to suppress MDA-MB-231 cell growth (cell growth inhibition) ([1]; 50 uM, 24 h) |
| --- | --- | --- | --- | --- | --- | --- | --- |
| C/C=C(/C=O)[C@@H](CC=O)CC(=O)OCCCCCCCCCCCCCCCC [GS26, (3S,4E)-4-formyl-3-(2-oxoethyl)-4-hexenoic acid hexadecyl ester] | 47.6% | 21.3 μg extract/mL | 61% |  |  |  |  |
| C/C=C(/C=O)[C@@H](CC=O)CC(=O)OCCCSC [GS28, (3S,4E)-4-formyl-3-(2-oxoethyl)-4-hexenoic acid 3-(methylthio)propyl ester] | 47.8% | 12.3 μg extract/mL | 48.7% | best efficacy | 81% |  |  |
| C/C=C(/C=O)[C@@H](CC=O)CC(=O)SCCc1ccccc1 [GS27, S-phenethyl (3S,4E)-4-formyl-3-(2-oxoethyl)hex-4-enethioate] | 61.4% | 16.4 μg extract/mL | 83.2% |  | 39% | best efficacy |  |
| C/C=C1/[C@H](OC2OC(CO)C(O)C(O)C2O)OC=C(C(=O)O)[C@H]1CC(=O)OCCc1ccc(O)c(O)c1 (stereo in doubt) [GS6, (2S,4S,E)-4-(2-(3,4-dihydroxyphenethoxy)-2-oxoethyl)-3-ethylidene-2{[(2R,3S,4R,5R,6S)-3,4,5-trihydroxy-6-(hydroxymethyl)tetrahydro-2H-pyran-2-yl]oxy}-3,4dihydro-2H-pyran-5-carboxylic acid] | 45.3% | 41.9 μg extract/mL | 24.8% |  | 48% |  |  |
| C/C=C1/[C@H](O[C@@H]2O[C@H](CO)[C@@H](O)[C@H](O)[C@H]2O)OC=C(C(=O)OC)[C@H]1CC(=O)OCCc1ccc(O)c(O)c1 [GS1, oleuropein] | 48.3% | 80.8 μg extract/mL |  |  |  |  |  |
| C/C=C(/C=O)[C@@H](CC=O)CC(=O)OCCc1ccc(O)cc1 [GS19, (3S,4E)-4-formyl-3-(2-oxoethyl)-4-hexenoic acid 2-(4-hydroxyphenyl)ethyl ester, reference compound] | 55% | 31.9 μg extract/mL |  |  | 79.1% |  |  |
| C/C=C(/C=O)[C@@H](CC=O)CC(=O)OCCc1ccc(O)c(O)c1 [GS17, (3S,4E)-4-formyl-3-(2-oxoethyl)-4-hexenoic acid 2-(3,4-dihydroxyphenyl)ethyl ester, reference compound] | 47.6% | 21.7 μg extract/mL | 35.2% |  |  |  |  |
| C/C=C(/C=O)[C@@H](CC=O)CC(=O)OCCOc1ccccc1 [GS24, (3S,4E)-4-formyl-3-(2-oxoethyl)-4-hexenoic acid 2-phenoxyethyl ester] | 80.5% | 16.1 μg extract/mL | 60.5% |  | 66.6% |  | highest suppressive activity |
